Data taken from PubChem BioAssay (NCI).
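The compound was tested at five concentrations on cells cultured in 96-well plates, with a 48-hour exposure period. At the TGI there is no net growth.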

What was measured:
Experiment in all cases: NCI anticancer screen, dose series, 48 h
M19-MEL melanoma = tested on: M19-MEL melanoma
LXFL 529 NSCLC = tested on: LXFL 529 NSCLC
RPMI-8226 leukemia = tested on: RPMI-8226 leukemia
OVCAR-8 ovarian = tested on: OVCAR-8 ovarian
KM12 colon = tested on: KM12 colon
RXF-631 renal = tested on: RXF-631 renal
UACC-62 melanoma = tested on: UACC-62 melanoma
DMS 273 small cell lung = tested on: DMS 273 small cell lung
U251 CNS = tested on: U251 CNS
MOLT-4 leukemia = tested on: MOLT-4 leukemia
OVCAR-5 ovarian = tested on: OVCAR-5 ovarian
RXF 393 renal = tested on: RXF 393 renal
DLD-1 colon = tested on: DLD-1 colon
SF-268 CNS = tested on: SF-268 CNS
786-0 renal = tested on: 786-0 renal
M14 melanoma = tested on: M14 melanoma
K-562 leukemia = tested on: K-562 leukemia
TK-10 renal = tested on: TK-10 renal
SK-MEL-5 melanoma = tested on: SK-MEL-5 melanoma
HOP-18 NSCLC = tested on: HOP-18 NSCLC
OVCAR-4 ovarian = tested on: OVCAR-4 ovarian
NCI-H460 lung = tested on: NCI-H460 lung
EKVX NSCLC = tested on: EKVX NSCLC
DMS 114 small cell lung = tested on: DMS 114 small cell lung
SF-295 CNS = tested on: SF-295 CNS
SK-MEL-28 melanoma = tested on: SK-MEL-28 melanoma
UO-31 renal = tested on: UO-31 renal
LOX IMVI melanoma = tested on: LOX IMVI melanoma
NCI-H23 lung = tested on: NCI-H23 lung
SNB-75 CNS = tested on: SNB-75 CNS
CCRF-CEM leukemia = tested on: CCRF-CEM leukemia
ACHN renal = tested on: ACHN renal
SNB-19 CNS = tested on: SNB-19 CNS
COLO 205 colon = tested on: COLO 205 colon
IGROV1 ovarian = tested on: IGROV1 ovarian
SR leukemia = tested on: SR leukemia
NCI-H226 lung = tested on: NCI-H226 lung
SK-OV-3 ovarian = tested on: SK-OV-3 ovarian
HT29 colon = tested on: HT29 colon
SNB-78 CNS = tested on: SNB-78 CNS
A549 NSCLC = tested on: A549 NSCLC
OVCAR-3 ovarian = tested on: OVCAR-3 ovarian
SF-539 CNS = tested on: SF-539 CNS
SW-620 colon = tested on: SW-620 colon
HL-60(TB) leukemia = tested on: HL-60(TB) leukemia
MALME-3M melanoma = tested on: MALME-3M melanoma
A498 renal = tested on: A498 renal
NCI-H522 lung = tested on: NCI-H522 lung
HOP-92 NSCLC = tested on: HOP-92 NSCLC
KM20L2 colon = tested on: KM20L2 colon
HCT-116 colon = tested on: HCT-116 colon
HOP-62 NSCLC = tested on: HOP-62 NSCLC
SK-MEL-2 melanoma = tested on: SK-MEL-2 melanoma
UACC-257 melanoma = tested on: UACC-257 melanoma
SN12C renal = tested on: SN12C renal
CAKI-1 renal = tested on: CAKI-1 renal
HCT-15 colon = tested on: HCT-15 colon
HCC-2998 colon = tested on: HCC-2998 colon

With `O=C1C(c2ccc([N+](=O)[O-])cc2)=[N+]([O-])c2ccc([N+](=O)[O-])cc21` the TGI (M19-MEL melanoma) was 88.2 µM, the TGI (LXFL 529 NSCLC) was > 100 µM and the TGI (RPMI-8226 leukemia) was > 100 µM. The TGI (OVCAR-8 ovarian) was > 100 µM, the TGI (KM12 colon) was > 100 µM and the TGI (RXF-631 renal) was > 100 µM. For the same compound, the TGI (UACC-62 melanoma) was 47.5 µM, the TGI (DMS 273 small cell lung) was > 100 µM and the TGI (U251 CNS) was > 100 µM. The TGI (MOLT-4 leukemia) was > 100 µM, the TGI (OVCAR-5 ovarian) was > 100 µM and the TGI (RXF 393 renal) was > 100 µM. The TGI (DLD-1 colon) was > 100 µM, the TGI (SF-268 CNS) was > 100 µM and the TGI (786-0 renal) was > 100 µM. The TGI (M14 melanoma) was > 100 µM, the TGI (K-562 leukemia) was > 100 µM and the TGI (TK-10 renal) was > 100 µM. For the same compound, the TGI (SK-MEL-5 melanoma) was > 100 µM, the TGI (HOP-18 NSCLC) was > 100 µM and the TGI (OVCAR-4 ovarian) was > 100 µM. For the same compound, the TGI (NCI-H460 lung) was > 100 µM, the TGI (EKVX NSCLC) was > 100 µM and the TGI (DMS 114 small cell lung) was > 100 µM. For the same compound, the TGI (SF-295 CNS) was > 100 µM, the TGI (SK-MEL-28 melanoma) was > 100 µM and the TGI (UO-31 renal) was > 100 µM. The TGI (LOX IMVI melanoma) was > 100 µM, the TGI (NCI-H23 lung) was > 100 µM and the TGI (SNB-75 CNS) was > 100 µM. For the same compound, the TGI (CCRF-CEM leukemia) was 74.1 µM, the TGI (ACHN renal) was > 100 µM and the TGI (SNB-19 CNS) was > 100 µM. For the same compound, the TGI (COLO 205 colon) was > 100 µM, the TGI (IGROV1 ovarian) was 76.9 µM and the TGI (SR leukemia) was > 100 µM. The TGI (NCI-H226 lung) was > 100 µM, the TGI (SK-OV-3 ovarian) was 83.2 µM and the TGI (HT29 colon) was > 100 µM. The TGI (SNB-78 CNS) was > 100 µM, the TGI (A549 NSCLC) was > 100 µM and the TGI (OVCAR-3 ovarian) was 55.8 µM. The TGI (SF-539 CNS) was > 100 µM, the TGI (SW-620 colon) was > 100 µM and the TGI (HL-60(TB) leukemia) was 43.7 µM.

For `CN(C)C(=S)OC(Cn1cncn1)c1ccc(Cl)cc1Cl` (stereo not given), the TGI (M19-MEL melanoma) was > 100 µM, the TGI (LXFL 529 NSCLC) was > 100 µM and the TGI (RPMI-8226 leukemia) was > 100 µM. For the same compound, the TGI (OVCAR-8 ovarian) was > 100 µM, the TGI (KM12 colon) was > 100 µM and the TGI (RXF-631 renal) was > 100 µM. For the same compound, the TGI (UACC-62 melanoma) was > 100 µM, the TGI (DMS 273 small cell lung) was > 100 µM and the TGI (U251 CNS) was > 100 µM. The TGI (MALME-3M melanoma) was > 100 µM, the TGI (A498 renal) was > 100 µM and the TGI (MOLT-4 leukemia) was > 100 µM. The TGI (OVCAR-5 ovarian) was > 100 µM, the TGI (RXF 393 renal) was > 100 µM and the TGI (DLD-1 colon) was > 100 µM. For the same compound, the TGI (SF-268 CNS) was > 100 µM, the TGI (NCI-H522 lung) was > 100 µM and the TGI (786-0 renal) was > 100 µM. For the same compound, the TGI (M14 melanoma) was > 100 µM, the TGI (K-562 leukemia) was > 100 µM and the TGI (TK-10 renal) was > 100 µM. The TGI (SK-MEL-5 melanoma) was > 100 µM, the TGI (HOP-18 NSCLC) was > 100 µM and the TGI (OVCAR-4 ovarian) was > 100 µM. For the same compound, the TGI (HOP-92 NSCLC) was > 100 µM, the TGI (NCI-H460 lung) was > 100 µM and the TGI (EKVX NSCLC) was > 100 µM. The TGI (DMS 114 small cell lung) was > 100 µM, the TGI (SF-295 CNS) was > 100 µM and the TGI (SK-MEL-28 melanoma) was > 100 µM. The TGI (KM20L2 colon) was > 100 µM, the TGI (UO-31 renal) was > 100 µM and the TGI (HCT-116 colon) was > 100 µM. For the same compound, the TGI (LOX IMVI melanoma) was > 100 µM, the TGI (NCI-H23 lung) was > 100 µM and the TGI (SNB-75 CNS) was > 100 µM. The TGI (HOP-62 NSCLC) was > 100 µM, the TGI (ACHN renal) was > 100 µM and the TGI (SK-MEL-2 melanoma) was > 100 µM. For the same compound, the TGI (UACC-257 melanoma) was > 100 µM, the TGI (SNB-19 CNS) was > 100 µM and the TGI (SN12C renal) was > 100 µM. For the same compound, the TGI (CAKI-1 renal) was > 100 µM, the TGI (COLO 205 colon) was > 100 µM and the TGI (IGROV1 ovarian) was > 100 µM. The TGI (HCT-15 colon) was > 100 µM, the TGI (NCI-H226 lung) was > 100 µM and the TGI (SK-OV-3 ovarian) was > 100 µM. For the same compound, the TGI (HT29 colon) was > 100 µM, the TGI (HCC-2998 colon) was > 100 µM and the TGI (A549 NSCLC) was > 100 µM. For the same compound, the TGI (OVCAR-3 ovarian) was > 100 µM, the TGI (SF-539 CNS) was > 100 µM and the TGI (SW-620 colon) was > 100 µM. The TGI (HL-60(TB) leukemia) was > 100 µM.
